Source: patent US20260265250A1, “3-[…] ACTIVATORS OF SEROTONIN RECEPTORS” (Atai Therapeutics, Inc., priority 2023, published 2026)
Structures can show the parent of a compound that is named as a salt.

Key:
5-HT2A [1] = target: T1, 5-HT2A (Homo sapiens, UniProt P28223); assay: Calcium Mobilization Assay (Calcium No-WashPLUS, Gq, FLIPR); assay type: cell-based; conditions: read-out: 5-HT2A % activation @30 uM Ca++ Flux
Description: (§1) Compounds 1-18 were assessed for biological activity across a panel of 5-HT receptors including 5-HT2A, 5-HT2B, and 5-HT2C. Biased signaling was assessed by monitoring both intracellular Gq-mediated calcium release, as well as β-arrestin activation and recruitment to the GPCR. Table 2 is a summary of findings across these compounds and the 5-HT receptors tested. • (i) Arrestin Pathway Assay. The PathHunter® β-Arrestin assay monitors the activation of a GPCR in a homogenous, non-imaging assay format using a technology developed by DiscoverX called Enzyme Fragment Complementation (EFC) with β-galactosidase (β-Gal) as the functional reporter. […] EA is fused to β-Arrestin and PK is fused to the GPCR of interest. When the GPCR is activated and β-Arrestin is recruited to the receptor, ED and EA complementation occurs, restoring β-Gal activity which is measured using chemiluminescent PathHunter® Detection Reagents. PathHunter cell lines (DiscoveRx Eurofins) were expanded from freezer stocks according to standard procedures. Cells were seeded in a total volume of 20 μL into white walled, 384-well microplates and incubated at 37° C. for the appropriate time prior to testing. For agonist determination, cells were incubated with sample to induce response. Intermediate dilution of sample stocks was performed to generate 5× sample in assay buffer. 5 μL of 5× sample was added to cells and incubated at 37° C. or room temperature for 90 to 180 minutes. Vehicle concentration was 1%. β-Arrestin assay signal was generated through a single addition of 12.5 or 15 μL (50% v/v) of PathHunter Detection reagent cocktail, followed by a one-hour incubation at room temperature. Microplates were read following signal generation with a PerkinElmer Envision™ instrument for chemiluminescent signal detection. Compound activity was analyzed using CBIS data analysis suite (ChemInnovation, CA). For agonist mode assays, percentage activity was calculated using the following formula: % Activity=100%×(mean RLU of test sample-mean RLU of vehicle control)/(mean MAX control ligand−mean RLU of vehicle control). In these studies, the MAX control ligand response was generated using 10 mM serotonin. • (ii) Calcium Mobilization Assay. The Calcium No-WashPLUS assay monitors the activation of a GPCR via Gq secondary messenger signaling in a live cell, non-imaging assay format. Calcium mobilization in PathHunter® cell lines or other cell lines stably expressing Gq-coupled GPCRs is monitored using a calcium-sensitive dye that is loaded into cells. GPCR activation by a compound result in the release of calcium from intracellular stores and an increase in dye fluorescence that is measured in real-time. Cell lines expressing the GPCR of interest were expanded from freezer stocks according to standard procedures. Cells were seeded in a total volume of 20 μL into black-walled, clear-bottom, Poly-D-lysine coated 384-well microplates and incubated at 37° C. for the appropriate time prior to testing. Assays were performed in 1× Dye Loading Buffer consisting of 1× Dye, 1× Additive A and 2.5 mM Probenecid in HBSS/20 mM Hepes. Probenicid was prepared fresh. Cells were loaded with dye prior to testing. Media was aspirated from cells and replaced with 20 μL Dye Loading Buffer. Cells were incubated for 30-60 minutes at 37° C. For agonist determination, cells were incubated with sample to induce response. After dye loading, cells were removed from the incubator and 10 μL HBSS/20 mM Hepes was added. 3× vehicle was included in the buffer when performing agonist dose curves to define the EC80 for subsequent antagonist assays. Cells were incubated for 30 minutes at room temperature in the dark to equilibrate plate temperature. Intermediate dilution of sample stocks was performed to generate 4× sample in assay buffer. Compound agonist activity was measured on a FLIPR Tetra (MDS). Calcium mobilization was monitored for 2 minutes and 10 μL 4× sample in HBSS/20 mM Hepes was added to the cells 5 seconds into the assay. […]
Target sequence in this assay (P28223 whole entry, the tested form may be a part): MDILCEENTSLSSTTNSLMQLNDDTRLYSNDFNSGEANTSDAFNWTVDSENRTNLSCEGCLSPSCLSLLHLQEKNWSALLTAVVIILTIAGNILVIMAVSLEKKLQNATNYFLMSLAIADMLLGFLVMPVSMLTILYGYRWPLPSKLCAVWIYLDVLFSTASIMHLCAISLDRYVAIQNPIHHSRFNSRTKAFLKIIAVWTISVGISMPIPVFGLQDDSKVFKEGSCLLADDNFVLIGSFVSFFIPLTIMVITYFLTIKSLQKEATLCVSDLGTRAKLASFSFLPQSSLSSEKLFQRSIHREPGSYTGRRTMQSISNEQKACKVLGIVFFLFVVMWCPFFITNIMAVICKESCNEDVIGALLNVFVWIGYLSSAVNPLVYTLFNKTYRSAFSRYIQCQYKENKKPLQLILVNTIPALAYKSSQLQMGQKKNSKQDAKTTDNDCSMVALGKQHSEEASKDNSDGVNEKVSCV

5-HT2A [2] = target: T1, 5-HT2A; assay: PathHunter β-Arrestin assay; assay type: cell-based
Description: as §1
Target sequence in this assay (P28223 whole entry, the tested form may be a part): as above
Target sequence in this assay (P32121 whole entry, further chain, the tested form may be a part): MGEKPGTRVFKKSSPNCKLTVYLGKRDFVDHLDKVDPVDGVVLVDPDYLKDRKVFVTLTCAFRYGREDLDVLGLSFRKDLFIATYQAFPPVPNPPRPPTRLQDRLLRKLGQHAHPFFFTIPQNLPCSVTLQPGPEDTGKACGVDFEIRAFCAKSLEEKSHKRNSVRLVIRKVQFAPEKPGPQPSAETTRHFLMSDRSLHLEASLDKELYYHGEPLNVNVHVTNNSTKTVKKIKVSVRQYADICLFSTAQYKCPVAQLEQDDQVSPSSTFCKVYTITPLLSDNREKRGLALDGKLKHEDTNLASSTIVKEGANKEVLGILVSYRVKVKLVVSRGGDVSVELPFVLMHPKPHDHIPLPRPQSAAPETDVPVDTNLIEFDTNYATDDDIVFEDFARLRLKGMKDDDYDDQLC

5-HT2C = target: T2, 5-HT2C (Homo sapiens, UniProt P28335); assay: 5-HT receptor panel, 5-HT2C agonist EC50 (readout not stated); assay type: cell-based
T2 sequence (P28335 33-458): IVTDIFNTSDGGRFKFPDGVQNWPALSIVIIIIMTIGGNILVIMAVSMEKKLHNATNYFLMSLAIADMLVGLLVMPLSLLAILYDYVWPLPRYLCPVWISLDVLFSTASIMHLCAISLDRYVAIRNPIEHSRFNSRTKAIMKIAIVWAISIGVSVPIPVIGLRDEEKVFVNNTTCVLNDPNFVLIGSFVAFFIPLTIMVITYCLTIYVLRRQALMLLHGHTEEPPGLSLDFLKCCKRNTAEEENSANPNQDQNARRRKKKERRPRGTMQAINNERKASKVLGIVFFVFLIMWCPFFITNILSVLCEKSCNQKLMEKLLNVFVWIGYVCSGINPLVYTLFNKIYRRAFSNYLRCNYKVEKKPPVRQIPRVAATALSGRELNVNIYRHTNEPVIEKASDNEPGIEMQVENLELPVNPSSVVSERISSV
Description: as §1

5-HT2A [3] = target: T1, 5-HT2A; conditions: compared to reference LSD; cited from earlier work
Target sequence in this assay (P28223 whole entry, the tested form may be a part): as the sequence (P28223 whole entry, the tested form may be a part) above

5-HT2A receptor [4] = conditions: cited from earlier work
5-HT2A receptor [5] = conditions: cited from earlier work; remark: listed apart in the source

| Structure (SMILES) | activation at 30 µM (5-HT2A [1]) | EC50 (5-HT2A [2]) | EC50 (5-HT2C) | also measured |
| --- | --- | --- | --- | --- |
| Cc1cc(Cl)cc(CNCCn2cnc3ccccc32)c1 [Compound 13, 2-(1H-benzo[d]imidazol-1-yl)-N-(3-chloro-5-methylbenzyl) ethan-1-amine hydrochloride] | 43.5% | – | – | – |
| CCn1cc(CCNCc2cc(C)cc(Cl)c2)c2ccccc21 [Compound 7, N-(3-chloro-5-methylbenzyl)-2-(1-ethyl-1H-indol-3-yl) ethan-1-amine hydrochloride] | 95.9% | 17.2 nM | 4 nM | – |
| Cc1cc(Cl)cc(CNCCc2nn(C)c3ccccc23)c1 [Compound 11, N-(3-chloro-5-methylbenzyl)-2-(1-methyl-1H-indazol-3-yl)-ethan-1-amine] | 79.1% | – | – | – |
| Cc1cc(Cl)cc(CNCc2c[nH]c3ccccc23)c1 [Compound 3, N-((1H-indol-3-yl)methyl)-1-(3-chloro-5-methylphenyl) methanamine hydrochloride] | 77.2% | – | – | – |
| Cc1cc(Cl)cc(CNCCc2c(C)[nH]c3ccccc23)c1 [Compound 9, N-(3-chloro-5-methylbenzyl)-2-(2-methyl-1H-indol-3-yl) ethan-1-amine hydrochloride] | 88.9% | 15 nM | > 1000 nM | – |
| Cc1cc(Cl)cc(CNCCc2cn(C)c3ccccc23)c1 [Compound 5, N-(3-chloro-5-methylbenzyl)-2-(1-methyl-1H-indol-3-yl) ethan-1-amine] | 112% | 17.5 nM | 116 nM | – |
| Cc1cc(Cl)cc(CNCCn2ncc3ccccc32)c1 [Compound 12, N-(3-chloro-5-methylbenzyl)-2-(1H-indazol-1-yl) ethan-1-amine hydrochloride] | 69.8% | – | – | – |
| Cc1cc(Cl)cc(CNCCn2c(=O)oc3ccccc32)c1 [Compound 17, 3-(2-((3-chloro-5-methylbenzyl)amino)ethyl)benzo-[d]oxazol-2(3H)-one] | -5.4% | – | – | – |
| COc1ccc(OC)c(CCNCc2ccccc2OC)c1 [Compound 25H-NBOMe] | – | – | – | preference for recruitment of β-arrestin 2 over miniGaq (5-HT2A [3]): statistically significant preference towards the recruitment of β-arrestin 2 over miniGaq |
| COc1ccc(OC)c(CCNCc2ccccc2O)c1 [Compound 25H-NBOH] | – | – | – | preference for recruitment of β-arrestin 2 over miniGaq (5-HT2A [3]): statistically significant preference towards the recruitment of β-arrestin 2 over miniGaq |
| COc1cc2c(CCNCc3cc(C)cc(Cl)c3)c[nH]c2cc1I [Compound 4, N-(3-chloro-5-methylbenzyl)-2-(6-iodo-5-methoxy-1H-indol-3-yl) ethan-1-amine] | 96.4% | 60 nM | 384 nM | – |
| Cc1cc(Cl)cc(CNC(C)Cc2cn(C)c3ccccc23)c1 (stereo not drawn) [Compound 6, N-(3-chloro-5-methylbenzyl)-1-(1-methyl-1H-indol-3-yl) propan-2-amine] | 110% | – | – | – |
| COc1ccc(OC)c(CCNCc2ccccc2F)c1 [Compound 25H-NBF] | – | – | – | preference for recruitment of β-arrestin 2 over miniGaq (5-HT2A [3]): statistically significant preference towards the recruitment of β-arrestin 2 over miniGaq |
| Cc1cc(Cl)cc(CN(C)CCc2c[nH]c3ccccc23)c1 [Compound 18] | 93.3% | – | – | – |
| COc1ccc(OC)c(CCNCc2cccc3c2OCO3)c1 [Compound 25H-NBMD] | – | – | – | preference for recruitment of β-arrestin 2 over miniGaq (5-HT2A [3]): statistically significant preference towards the recruitment of β-arrestin 2 over miniGaq |
| Cc1cc(Cl)cc(CNCCc2c[nH]c3ccccc23)c1 [Compound 1, N-(3-chloro-5-methylbenzyl)-2-(1H-indol-3-yl) ethan-1-amine] | 77.8% | 4.5 nM | 28 nM | – |
| CCn1cc(CC(C)NCc2cc(C)cc(Cl)c2)c2ccccc21 (stereo not drawn) [Compound 8, N-(3-chloro-5-methylbenzyl)-1-(1-ethyl-1H-indol-3-yl) propan-2-amine] | 86.4% | – | – | – |
| CCN(CC)C(=O)[C@@H]1C=C2c3cccc4[nH]cc(c34)C[C@H]2N(C)C1 [LSD] | – | – | – | activation of canonical Gq-based signaling downstream of 5-HT2A (5-HT2A receptor [4]): activate canonical Gq-based signaling downstream of 5-HT2A; expression of early growth response proteins (EGR1 and EGR2) via Gi/o subunits and SRC protein kinase (5-HT2A receptor [5]): stimulated the expression of early growth response proteins (EGR1 and EGR2) |
| Cc1cc(Cl)cc(CNC(C)Cc2c[nH]c3ccccc23)c1 (stereo not drawn) [Compound 2, N-(3-chloro-5-methylbenzyl)-1-(1H-indol-3-yl) propan-2-amine] | 84.2% | 434 nM | 102 nM | – |
| Cc1cc(F)cc(CNCCc2c[nH]c3ccccc23)c1 [Compound 10, N-(3-fluoro-5-methylbenzyl)-2-(1H-indol-3-yl) ethan-1-amine hydrochloride] | 72.6% | – | – | – |
